# Laboratory results published in patent publication US8093060B2, “Multisite phosphorylated peptide (protein) recognizing compound and detection method, imaging method, alzheimer's disease diagnosing method and reagent kit using the same” (Canon Kabushiki Kaisha, priority 2008, dated 2012).
# Assays:
# [1] = Delivery of BODIPY-Zn(Dpa) into brain after intravenous administration; assay type: in vivo, ICR mouse; settings: i.v. 1 mg/kg; for percent of the dose per gram of the mouse brain: rounded; for content in the brain / content in the brain based on the dose: mouse
# Procedure: BODIPY-Zn(Dpa) was intravenously administered to an ICR mouse (male, 7 weeks old) to measure the delivery thereof into the brain in vivo. Specifically, BODIPY-Zn(Dpa) (400 μL of 50 μM HBS solution) was injected from the caudal vein at a dose of 1 mg/kg, and the brain was collected at 2 or 30 min after administration. The collected brain (424 to 488 mg) was homogenized in 3 mL of an HBS solution using a spatula and homogenized by ultrasonic irradiation. BODIPY-Zn(Dpa) contained in the brain was quantified by reverse-phase HPLC to obtain the content of BODIPY-Zn(Dpa) in the brain based on the dose (% ID/g: % injected dose per gram of the brain). Fluorescence from the compound (excitation, 520 nm; fluorescence, 545 nm) was utilized for detection by HPLC.
# GSK-3β = assay: Kinase assay using BODIPY-Zn(Dpa), Tau1P and GSK-3β; assay type: biochemical
# Procedure: A kinase assay was performed using Tau1P, a phosphorylated partial sequence peptide of a tau protein, BODIPY-Zn(Dpa) and GSK-3β, which phosphorylates the 231st threonine. The experiment conditions were as follows: 20 μM Tau1P, 20 μM BODIPY-Zn(Dpa), 100 μM ATP, 2 μg of BSA, 50 mM HEPES, 10 mM MgCl2, 10 mM DTT, 2 μM EDTA; pH 7.2; 30° C.; and an excitation wavelength of 540 nm. […] This is a result of phosphorylation of the 231st threonine in Tau1P by GSK-3β, recognition of the phosphorylation by BODIPY-Zn(Dpa) and the resulting interaction.
# [2] = tested on: hippocampal tissues from the normal human brain; assay: Fluorescence staining of normal human brain hippocampal tissue sections
# Procedure: To investigate whether an excessively phosphorylated tau protein in brain tissues can be detected, a fluorescence staining experiment of hippocampal tissue sections from a human brain affected by Alzheimer (AD) and a normal brain was performed using BODIPY-Zn(Dpa). Specifically, hippocampal tissue sections from the AD-affected human brain or the normal brain were deparaffinized (xylene immersion for 5 min was repeated three times, then each section was immersed in 100%, 90%, 80% and 70% aqueous ethanol solution in stages [for 2 min each], and finally washed twice with water for 5 min), lipofuscin was removed (washed twice with PBS for 2 min, immersed in 0.25% by weight permanganate potassium/PBS for 30 min, washed twice with PBS for 2 min, immersed in 1% by weight oxalic acid and 1% by weight potassium pyrosulfate/PBS for 6 min and finally washed twice with PBS for 2 min), trypsin treatment was performed (washed twice with PBS-Tween at room temperature for 2 min and 0.05% Trypsin/PBS at 37° C. for 15 min), and finally washed twice with PBS-Tween at room temperature for 5 min, and costaining was performed using an antibody and BODIPY-Zn(Dpa). First, blocking was performed with 10% goat serum (37° C., 30 min) to remove 10% goat serum, then a primary antibody was added, and a reaction was performed at 4° C. for 17 to 19 h. […]
# Tau2P = target: T1, Tau2P (Homo sapiens, UniProt P10636); assay: Fluorescence titration of BODIPY-Zn(Dpa) with Tau2P; assay type: binding; settings: Tau 2P (i, i+4)
# T1 construct: made in house; host or cells: chemical solid-phase synthesis
# Procedure: (§1) The phosphorylated peptide-recognizing ability of BODIPY-Zn(Dpa) compound 9 (hereinafter referred to as BODIPY-Zn(Dpa)) was evaluated by measuring fluorescence spectra. Measurement was performed under the following conditions: [BODIPY-Zn(Dpa)]=5 μM; pH 7.2; 50 mM HEPES buffer; and 25° C. The excitation wavelength was λex=530 nm. […] When Tau2P was excessively added, this change reached saturation. The […] calculated from the fluorescence changes was 2.75×10^5 M^−1.
# Tau0P = target: T2, Tau0P (Homo sapiens, UniProt P10636); assay: Fluorescence titration of BODIPY-Zn(Dpa) with Tau0P; assay type: binding
# T2 construct: made in house; host or cells: chemical solid-phase synthesis
# Procedure: as §1
# tau aggregate = target: T3, tau aggregate (Homo sapiens, UniProt P10636); assay: Fluorescence titration of tau aggregate against 100 nM BODIPY-Zn(Dpa); assay type: binding; settings: tau 0 to 320 nM against 100 nM BODIPY-Zn(Dpa), 37° C., 60 min
# T3 construct: made in house; host or cells: Escherichia coli
# Procedure: The ranges of concentrations at which a phosphorylated tau aggregate, a tau aggregate, and an amyloid β aggregate interact with BODIPY-Zn(Dpa) were examined by titration. Titration was performed in the range of tau concentrations of 0 to 320 nM (0 to 14 μg/mL) against 100 nM of BODIPY-Zn(Dpa). Using a solvent obtained by adding 10% DMSO and 10 μM Zn(NO3)2 to HBS (10 mM HEPES (pH 7.4), 150 mM NaCl), the solution was incubated at 37° C. for 60 min, and fluorescence was measured (excitation wavelength, 490 nm; fluorescence wavelength, 545 nm).
# T3 sequence (P10636 1-441 isoform P10636-8): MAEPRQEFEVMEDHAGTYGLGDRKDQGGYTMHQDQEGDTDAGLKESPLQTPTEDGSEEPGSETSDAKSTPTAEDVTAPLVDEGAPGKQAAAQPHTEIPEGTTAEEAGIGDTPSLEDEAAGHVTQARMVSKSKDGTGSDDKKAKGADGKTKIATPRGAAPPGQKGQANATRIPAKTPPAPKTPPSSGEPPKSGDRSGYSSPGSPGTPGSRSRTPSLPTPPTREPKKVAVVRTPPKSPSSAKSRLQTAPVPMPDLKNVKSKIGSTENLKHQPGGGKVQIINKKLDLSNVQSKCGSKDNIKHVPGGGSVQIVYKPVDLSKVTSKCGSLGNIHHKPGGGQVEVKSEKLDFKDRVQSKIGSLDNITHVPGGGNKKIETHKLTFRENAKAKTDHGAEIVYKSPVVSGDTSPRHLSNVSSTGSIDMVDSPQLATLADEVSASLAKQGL
smiles,measurement,setting,value
CC1=C(c2ccc(CN(C)Cc3ccccn3)nc2)C(C)=[N+]2C1=C(c1cc(OCCOCCOCCO)cc(OCCOCCOCCO)c1)c1c(C)c(-c3ccc(CN(C)Cc4ccccn4)nc3)c(C)n1[B-]2(F)F.O=[N+]([O-])[O-].O=[N+]([O-])[O-].O=[N+]([O-])[O-].O=[N+]([O-])[O-].[Zn+2].[Zn+2] [BODIPY-Zn(Dpa)],percent of the dose per gram of the mouse brain,[1]; 2 min after administration,0.5%
same,percent of the dose per gram of the mouse brain,[1]; 30 min after administration,0.02%
same,content in the brain,[1]; 2 min after administration,99.3 pmol/g brain
same,content in the brain based on the dose,[1]; 2 min after administration,0.496 % ID/g
same,content in the brain,[1]; 30 min after administration,3.96 pmol/g brain
same,content in the brain based on the dose,[1]; 30 min after administration,0.020 % ID/g
same,fluorescence intensity change with time,"GSK-3β; 20 μM Tau1P, 20 μM BODIPY-Zn(Dpa), 100 μM ATP, 30° C.",increase in fluorescence intensity with time was confirmed
same,kinase concentration dependence of fluorescence intensity,GSK-3β; GSK-3β concentration varied,concentration-dependence of GSK-3β was observed
same,fluorescence in tissue,[2],is not observed
same,I/I0 - 1 at saturation,"Tau2P; BODIPY-Zn(Dpa) 5 μM, pH 7.2, 25° C.",0.55
same,Association constant,Tau2P; calculated from fluorescence changes,275000 M⁻¹
same,I/I0 - 1 at saturation,Tau0P; Tau 0P,No change
same,fluorescence intensity change on addition of peptide,"Tau0P; Tau0P, unphosphorylated",no major change was observed
same,concentration range of interaction,tau aggregate,in the range of nM
